Assay results from patent US8697694B2, “Substituted pyridine and pyrimidine derivatives and their use in treating viral infections” (priority 2008, dated 2014).

system: HCV replicon cells; test: Cell-based HCV replicon assay (replicon RNA level by real time PCR, Taqman); conditions: Hepatitis C virus, 72 h, HCV replicon cells, harvested day 3, replicon RNA by real time PCR; given as number; read-out: EC90 (μM) range
In short: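 Readout: ΔCT between NS5B replicon RNA and GAPDH by real-time RT-PCR in lysates harvested on day 3, fitted sigmoidally; EC50 at ΔCT=1, EC90 at ΔCT=3.2. Compounds tested at ten 2-fold dilutions from 25 μM to 1 μM start, 10% FBS, 0.5% DMSO.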

Row | Compound | EC90 [µM]
1 | Cc1nc(NCC(F)(F)F)nc(N[C@@H]2C[C@H](COC(=O)N3CCCC3)[C@@H](O)[C@H]2O)c1-c1nc2ccccc2s1 [Example 64] | 0.8
2 | Cc1nc(NCC(C)(C)C)nc(N[C@@H]2C[C@H](CO)[C@@H](O)[C@H]2O)c1-c1cc2cc(OCC3CC3)ncc2o1 [Example 58] | 1
3 | Cc1nc(NCC2CC2)nc(N[C@@H]2C[C@H](CO)[C@@H](O)[C@H]2O)c1-c1cc2cc(OCC(C)(C)C)nc(C)c2o1 [Example 45] | > 25
4 | CCOc1cc2cc(-c3c(C)nc(NCc4cc(OC)cc(OC)c4)nc3N[C@@H]3C[C@H](CO)[C@@H](O)[C@H]3O)oc2c(C)n1 [Example 36] | 0.01

same assay, conditions: Hepatitis C virus, 72 h, HCV replicon cells, harvested day 3, replicon RNA by real time PCR; reported as range class; read-out: EC90 (μM) range

Row | Compound | EC90 [µM]
5 | CCOCCNc1nc(C)c(-c2nc3ccccc3s2)c(N[C@@H]2C[C@H](CO)[C@@H](O)[C@H]2O)n1 [Example 208] | < 0.5
6 | CCOc1ccc2nc(-c3c(Cl)nc(N(C)C)nc3N[C@@H]3C[C@H](CO)[C@@H](O)[C@H]3O)sc2c1 [Example 203] | > 5
7 | Nc1nc(Cl)c(-c2cc3cc(F)ccc3o2)c(N[C@@H]2C[C@H](CO)[C@@H](O)[C@H]2O)n1 [Example 164] | > 5
8 | Cc1cc2cc(-c3c(Cl)nc(N)nc3N[C@@H]3C[C@H](CO)[C@@H](O)[C@H]3O)oc2c(C)n1 [Example 401] | < 0.5
9 | COC[C@H]1C[C@@H](Nc2nc(N(C)C)nc(Cl)c2-c2nc3ccccc3s2)[C@H](O)[C@@H]1O [Example 121] | < 0.5
10 | Nc1nc(Cl)c(-c2cc3ccncc3o2)c(N[C@@H]2C[C@H](CO)[C@@H](O)[C@H]2O)n1 [Example 9] | < 0.5
11 | Nc1nc(Cl)c(-c2cnccn2)c(N[C@@H]2C[C@H](CO)[C@@H](O)[C@H]2O)n1 [Example 159] | > 5
12 | COCc1cc2cc(-c3c(Cl)nc(N)nc3N[C@@H]3C[C@H](CO)[C@@H](O)[C@H]3O)oc2c(C)n1 [Example 311] | < 0.5
13 | OC[C@H]1C[C@@H](Nc2nc(NCCCF)nc(Cl)c2-c2nc3ccccc3s2)[C@H](O)[C@@H]1O [Example 126] | < 0.5
14 | CCOc1cc2cc(-c3c(Cl)nc(NCCOC)nc3N[C@@H]3C[C@H](CO)[C@@H](O)[C@H]3O)oc2c(C)n1 [Example 21] | < 0.5
15 | CNc1nc(C)c(-c2nc3ccccc3s2)c(N[C@@H]2C[C@H](CO)[C@@H](O)[C@H]2O)n1 [Example 319] | < 0.5
16 | CCOc1cc2cc(-c3c(Cl)nc(NCC(F)(F)F)nc3N[C@@H]3C[C@H](CO)[C@@H](O)[C@H]3O)oc2c(C)n1 [Example 20] | < 0.5
17 | CCCOCCNc1nc(C)c(-c2nc3ccccc3s2)c(N[C@@H]2C[C@H](CO)[C@@H](O)[C@H]2O)n1 [Example 227] | < 0.5

same assay, conditions: Hepatitis C virus, 72 h, HCV replicon cells, harvested on day 3, replicon RNA by real time PCR; calculated EC90 reported as range class; read-out: EC90 (μM) range

Row | Compound | EC90 [µM]
18 | Cc1nc(NCc2ccccn2)nc(N[C@@H]2C[C@H](CO)[C@H]3OC(C)(C)O[C@H]32)c1-c1nc2ccccc2s1 [Example 462] | 0.5 to 5
19 | OC[C@H]1C[C@@H](Nc2nc(NCc3ccccc3F)nc(Cl)c2-c2nc3ccccc3s2)[C@H](O)[C@@H]1O [Example 232] | < 0.5
20 | Cc1cc2cc(-c3c(Cl)nc(NCC4CCOCC4)nc3N[C@@H]3C[C@H](CO)[C@@H](O)[C@H]3O)oc2c(C)n1 [Example 458] | < 0.5
21 | CCc1cc2cc(-c3c(C)nc(NCC(C)C)nc3N[C@@H]3C[C@H](CO)[C@@H](O)[C@H]3O)oc2cn1 [Example 519] | < 0.5
22 | Cc1nc(CNc2nc(C)c(-c3nc4ccccc4s3)c(N[C@@H]3C[C@H](CO)[C@H]4OC(C)(C)O[C@H]43)n2)cs1 [Example 494] | > 5
23 | CCOCCNc1nc(C)c(-c2nc3cc(NC)ccc3s2)c(N[C@@H]2C[C@H](CO)[C@@H](O)[C@H]2O)n1 [Example 259] | < 0.5
24 | Cc1nc(NCc2nccs2)nc(N[C@@H]2C[C@H](CO)[C@H]3OC(C)(C)O[C@H]32)c1-c1nc2ccccc2s1 [Example 472] | < 0.5
25 | Cc1nc(NCc2ccccc2)nc(N[C@@H]2C[C@H](CO)[C@@H](O)[C@H]2O)c1-c1nc2ccccc2s1 [Example 431] | < 0.5
26 | Cc1nc(NCC(F)(F)F)nc(N[C@@H]2C[C@H](CO)[C@H]3OC(C)(C)O[C@H]32)c1-c1cc2cc(C(F)(F)F)ncc2o1 [Example 140] | 0.5 to 5
27 | Cc1csc(CNc2nc(C)c(-c3nc4ccccc4s3)c(N[C@@H]3C[C@H](CO)[C@@H](O)[C@H]3O)n2)c1 [Example 480] | < 0.5
28 | CCCCCNc1nc(C)c(-c2cc3cc(C)nc(C)c3o2)c(N[C@@H]2C[C@H](CO)[C@@H](O)[C@H]2O)n1 [Example 452] | < 0.5
29 | Cc1nc(NCc2ccccc2C(F)(F)F)nc(N[C@@H]2C[C@H](CO)[C@H]3OC(C)(C)O[C@H]32)c1-c1nc2ccccc2s1 [Example 236] | > 5
30 | COC[C@H](C)Nc1nc(C)c(-c2nc3ccccc3s2)c(N[C@@H]2C[C@H](CO)[C@@H](O)[C@H]2O)n1 [Example 439] | < 0.5
31 | Cc1nc(NC(C)(C)C)nc(N[C@@H]2C[C@H](CO)[C@@H](O)[C@H]2O)c1-c1nc2ccccc2s1 [Example 429] | < 0.5
32 | Cc1csc(CNc2nc(C)c(-c3nc4ccccc4s3)c(N[C@@H]3C[C@H](CO)[C@@H](O)[C@H]3O)n2)n1 [Example 707] | < 0.5
33 | Cc1cccnc1CNc1nc(C)c(-c2nc3ccccc3s2)c(N[C@@H]2C[C@H](CO)[C@H]3OC(C)(C)O[C@H]32)n1 [Example 498] | > 5
34 | Cc1nc(NCc2ccccc2C(F)(F)F)nc(N[C@@H]2C[C@H](CO)[C@@H](O)[C@H]2O)c1-c1nc2ccccc2s1 [Example 239] | 0.5 to 5
35 | Cc1ccc(CNc2nc(C)c(-c3nc4ccccc4s3)c(N[C@@H]3C[C@H](CO)[C@H]4OC(C)(C)O[C@H]43)n2)cc1 [Example 489] | 0.5 to 5
36 | Cc1cc(CNc2nc(C)c(-c3nc4ccccc4s3)c(N[C@@H]3C[C@H](CO)[C@@H](O)[C@H]3O)n2)on1 [Example 493] | < 0.5

same assay, conditions: Hepatitis C virus, 72 h, HCV replicon cells, replicon RNA level by real time PCR (Taqman), harvested on day 3; calculated EC90 reported as range class; read-out: EC90 (μM) range

Row | Compound | EC90 [µM]
37 | Cc1nc(NCc2cccc(N)c2)nc(N[C@@H]2C[C@H](CO)[C@@H](O)[C@H]2O)c1-c1nc2ccccc2s1 [Example 1112] | 0.5 to 5
38 | Cc1nc(NCC(C)(F)F)nc(N[C@@H]2C[C@H](CO)[C@@H](O)[C@H]2O)c1-c1nc2ccccc2s1 [Example 1242] | 0.5 to 5
39 | Cc1nc(OCC(F)(F)F)nc(N[C@@H]2C[C@H](CO)[C@@H](O)[C@H]2O)c1-c1nc2ccccc2s1 [Example 1057] | > 5
40 | COc1cccc(OC)c1Nc1nc(C)c(-c2nc3ccccc3s2)c(N[C@@H]2C[C@H](CO)[C@@H](O)[C@H]2O)n1 [Example 1125] | > 5
41 | COc1cc(CNc2nc(C)c(-c3nc4cnccc4s3)c(N[C@@H]3C[C@H](CO)[C@@H](O)[C@H]3O)n2)cc(OC)c1 [Example 537] | < 0.5
42 | Cc1nc(N[C@@H](C)C(C)(C)C)nc(N[C@@H]2C[C@H](CO)[C@@H](O)[C@H]2O)c1-c1nc2cnccc2s1 [Example 1310] | 0.5 to 5
43 | Cc1nc(NCc2ccc3c(c2)OCO3)nc(N[C@@H]2C[C@H](CO)[C@@H](O)[C@H]2O)c1-c1nc2ccccc2s1 [Example 1203] | 0.5 to 5
44 | Cc1nc(NCc2cccc(N(C)C)c2)nc(N[C@@H]2C[C@H](CO)[C@H]3OC(C)(C)O[C@H]32)c1-c1nc2ccccc2s1 [Example 1105] | 0.5 to 5

same assay, conditions: Hepatitis C virus, 72 h, HCV replicon cells, replicon RNA level by real time PCR, harvested day 3; read-out: EC90 (μM) range

Row | Compound | EC90 [µM]
45 | Cc1nc(N[C@@H](c2ccccc2)C(F)(F)F)nc(N[C@@H]2C[C@H](CO)[C@@H](O)[C@H]2O)c1-c1nc2c(C)nccc2s1 [Example 1353] | < 0.5
46 | Cc1nc(C(N)=O)nc(N[C@@H]2C[C@H](CO)[C@@H](O)[C@H]2O)c1-c1nc2ccccc2s1 [Example 1903] | > 5
47 | Cc1nc(NCC(F)(F)F)nc(N[C@@H]2C[C@H](C(O)c3nccn3C)[C@@H](O)[C@H]2O)c1-c1nc2ccccc2s1 (some centres unmarked) [Example 1653] | < 0.5
48 | COC(=O)N(C)C[C@H]1C[C@@H](Nc2nc(NCC(F)(F)F)nc(C)c2-c2nc3ccccc3s2)[C@H](O)[C@@H]1O [Example 1390] | 0.5 to 5
49 | CCc1nccc2sc(-c3c(C)nc(N[C@H](C)C4CC4)nc3N[C@@H]3C[C@H](CS(C)(=O)=O)[C@@H](O)[C@H]3O)nc12 [Example 1382] | < 0.5
50 | C=CCNc1nc(C)c(C2=NC3=C=CC=CC3S2)c(N[C@@H]2C[C@H](CO)[C@@H](O)[C@H]2O)n1 (some centres unmarked) [Example 1906] | 0.5 to 5
51 | Cc1nc(NCC(F)(F)F)nc(N[C@@H]2C[C@H](C(O)c3ncc[nH]3)[C@@H](O)[C@H]2O)c1-c1nc2ccccc2s1 (some centres unmarked) [Example 1654] | 0.5 to 5
52 | Cc1nc(NCC(F)(F)F)nc(N[C@@H]2CC[C@@H](O)[C@@]2(C)O)c1-c1nc2c(C)nccc2s1 [Example 1816] | < 0.5
53 | Cc1nc(NCC(F)(F)F)nc(N[C@@H]2C[C@H](CN)[C@@H](O)[C@H]2O)c1-c1nc2ccccc2s1 [Example 1519] | 0.5 to 5
54 | Cc1nc(N[C@H](c2cccs2)C(F)(F)F)nc(N[C@@H]2C[C@H](CO)[C@@H](O)[C@H]2O)c1-c1nc2ccccc2s1 [Example 1803] | > 5
55 | Cc1nc(N[C@H](C)c2ccc(C(F)(F)F)cc2)nc(N[C@@H]2C[C@H](CO)[C@@H](O)[C@H]2O)c1-c1nc2c(C)nccc2s1 [Example 1356] | < 0.5
56 | CCOc1cc2cc(-c3c(C)nc(NCC4CC4)nc3N[C@@H]3C[C@H](CNS(C)(=O)=O)[C@@H](O)[C@H]3O)oc2c(C)n1 [Example 1347] | < 0.5
57 | COc1ccc([C@H](Nc2nc(C)c(-c3nc4c(C)nccc4s3)c(N[C@@H]3C[C@H](CO)[C@@H](O)[C@H]3O)n2)C(F)(F)F)cc1 [Example 1540] | < 0.5
58 | Cc1nc(NCC2CC2)nc(N[C@@H]2C[C@H](CO)[C@@H](O)[C@H]2O)c1-c1nc2c(OCC3CC3)nccc2s1 [Example 1338] | < 0.5
59 | Cc1nc(NCC2CC2)nc(N[C@@H]2C[C@H](C(C)O)[C@@H](O)[C@H]2O)c1-c1nc2cnccc2s1 (some centres unmarked) [Example 1641] | < 0.5
